Data set [1] is described as follows: in vitro. The class given is in vitro ADME. The settings on record: mouse, serum. The procedure: Incubation in human and murine serum (BioIVT, United Kingdom) was used to determine the stability of the described precursors. First, the substances were labeled with [^177Lu]Lu^3+ and added to 100 µl of pre-warmed serum (0.5 nmol, 3 - 10 MBq). The reaction mixture was incubated at 37 °C and 10 µl samples were taken at regular intervals (0, 6, 24, 48, 72 h). After precipitation of the proteins by the addition of 30 µl of acetonitrile, the probes were centrifuged for 2 min at 14,000 rpm and the stability determined by analytical radio-HPLC of the […].

The nature of data set [2]: in vivo. The settings on record: male, BALB/c nu/nu, mouse, iv, 500 pmol, total radioactivity.
A short description of data set [3]: in vivo. The settings on record: male, BALB/c nu/nu, mouse, iv, 500 pmol, total radioactivity. This is another data set of the same source.
Data set [4] can be described thus: Static small-animal PET imaging 1 h and 2 h p.i. The settings on record: male, BALB/c nu/nu, mouse, iv, 500 pmol, total radioactivity; for SUV at 1 h / SUV at 2 h: 68Ga-labeled, 0.5 nmol i.v., n = 1, SD from VOIs; for SUV at 1 h: static PET 1 h p.i.; for SUV at 2 h: static PET 2 h p.i.
Data set [5] in a line: Dynamic small-animal PET imaging (0 - 60 min). The settings on record: male, BALB/c nu/nu, mouse, tumor (LNCaP xenograft), iv, 500 pmol, total radioactivity.
[6] abbreviates: tumor (LNCaP xenograft), SUV tumor.

Non-standard residues stand in square brackets, D forms with d. Residues, ends and D or L forms follow the SMILES beside them. *: point of attachment. DOTA = O=C(O)CN1CCN(CC(=O)O)CCN(CC(=O)*)CCN(CC(=O)O)CC1; EuK = O=C(O)CC[C@H](NC(=O)N[C@@H](CCCCN*)C(=O)O)C(=O)O; 2Nal = N[C@@H](Cc1ccc2ccccc2c1)C(=O)O; Trx = NC[C@H]1CC[C@H](C(=O)O)CC1

As a reminder, the amount remaining is the share of the starting amount still present when the sample was taken. The low end stands for a greater loss, the high end for greater stability. `O=C(O)CC[C@H](NC(=O)N[C@@H](CCCCNC(=O)[C@H](Cc1ccc2ccccc2c1)NC(=O)[C@H](Cc1c[nH]cn1)NC(=O)[C@H](Cc1c[nH]cn1)NC(=O)[C@H](Cc1c[nH]cn1)NC(=O)[C@H]1CC[C@H](CNC(=O)CN2CCN(CC(=O)O)CCN(CC(=O)O)CCN(CC(=O)O)CC2)CC1)C(=O)O)C(=O)O` [[^177Lu]Lu-PS10, metal not drawn] ({DOTA-Trx}-HHH[2Nal]-EuK) registered a share remaining at 48 h, 5 µM in data set [1] of 64%.
As for `O=C(O)CC[C@H](NC(=O)N[C@@H](CCCCNC(=O)[C@H](Cc1ccc2ccccc2c1)NC(=O)[C@H]1CC[C@H](CNC(=O)[C@H](Cc2c[nH]cn2)NC(=O)[C@H](Cc2c[nH]cn2)NC(=O)[C@H](Cc2c[nH]cn2)NC(=O)CN2CCN(CC(=O)O)CCN(CC(=O)O)CCN(CC(=O)O)CC2)CC1)C(=O)O)C(=O)O` [[^68Ga]Ga-PS11, metal not drawn] ({DOTA}-HHH[Trx][2Nal]-EuK), the tissue to tissue ratio at 1 h turned out to be 0.66 ± 0.15 in data set [2] and 0.633 in data set [3]. In addition, the tissue to tissue ratio at 2 h in data set [2] came out at 1.15 ± 0.27.
For `O=C(O)CC[C@H](NC(=O)N[C@@H](CCCCNC(=O)[C@H](Cc1c[nH]cn1)NC(=O)[C@H](Cc1c[nH]cn1)NC(=O)[C@H](Cc1c[nH]cn1)NC(=O)[C@H](Cc1ccc2ccccc2c1)NC(=O)[C@H]1CC[C@H](CNC(=O)CN2CCN(CC(=O)O)CCN(CC(=O)O)CCN(CC(=O)O)CC2)CC1)C(=O)O)C(=O)O` [[^177Lu]Lu-PS9, metal not drawn] ({DOTA-Trx}-[2Nal]HHH-EuK), the metabolised at 24 h, 5 µM in data set [1] is around 40%.
For the molecule `O=C(O)CC[C@H](NC(=O)N[C@@H](CCCCNC(=O)[C@H](Cc1ccc2ccccc2c1)NC(=O)[C@H]1CC[C@H](CNC(=O)[C@H](CCC(=O)O)NC(=O)[C@H](CCC(=O)O)NC(=O)[C@H](CCC(=O)O)NC(=O)CN2CCN(CC(=O)O)CCN(CC(=O)O)CCN(CC(=O)O)CC2)CC1)C(=O)O)C(=O)O` [[^68Ga]Ga-PS8, metal not drawn] ({DOTA}-EEE[Trx][2Nal]-EuK), the tissue to tissue ratio at 1 h in data set [2] was found to be 16.2 ± 0.27. For the same molecule, the SUV at 1 h in data set [3] came to 1.17 SUV.
Take `O=C(O)CC[C@H](NC(=O)N[C@@H](CCCCNC(=O)[C@H](Cc1ccc2ccccc2c1)NC(=O)[C@H]1CC[C@H](CNC(=O)[C@H](CCC(=O)O)NC(=O)[C@H](Cc2c[nH]cn2)NC(=O)[C@H](CCC(=O)O)NC(=O)[C@H](Cc2c[nH]cn2)NC(=O)[C@H](CCC(=O)O)NC(=O)[C@H](Cc2c[nH]cn2)NC(=O)CN2CCN(CC(=O)O)CCN(CC(=O)O)CCN(CC(=O)O)CC2)CC1)C(=O)O)C(=O)O` [[^68Ga]Ga-PS4, metal not drawn] ({DOTA}-HEHEHE[Trx][2Nal]-EuK): the SUV at 1 h stood at 3.81 ± 0.15 SUV in data set [4] (kidneys, SUV kidneys); 1.15 ± 0.04 SUV in data set [4] (setting [6]); 1.07 SUV in data set [5]. For the same molecule, the SUV at 2 h in data set [4] (kidneys, SUV kidneys) came to 2.77 ± 0.2 SUV; in data set [4] (setting [6]), 1.07 ± 0.09 SUV. In addition, in data set [4] (tumor / muscle), the tissue to tissue ratio at 1 h is 10.5 ± 0.2.

(Values after PMC12775819, “Optimizing PSMA-617-based inhibitors through charged linker modifications: Insights into structure-activity relationships” (Theranostics, 2026).)
